Assay results from patent US9675627B2, “Dosing regimens for treating and/or preventing cerebral amyloidoses” (Amicus Therapeutics, Inc., priority 2014, dated 2017).

Columns and labels:
β-hex [1] = assay: Proof-of-concept study: brain β-hex levels; type: in vivo, Dutch APP^E693Q transgenic mice; conditions: 3-month course
Procedure: (§1) The generation and characterization of Dutch APPE693Q mice transgenic mice is described in Gandy, S., et al. Days to criterion as an indicator of toxicity associated with human Alzheimer amyloid-beta oligomers. Annals of neurology 68, 220-230 (2010). 3-month-old male Dutch APP^E693Q mice transgenic mice were orally gavaged 5 days/week with either vehicle (water) (n=15) or 3, 10, 30 or 100 mg/kg AdDNJ for 3 months (n=13). All animal studies were approved and conducted in accordance with the Institutional Animal Care and Usage Committee. Mice were kept in a pathogen-free environment, on a 12-hour light/dark cycle and given ad libitum access to food and water. At 6 month of age treatment groups, and a 3-month-old untreated baseline group (n=15), were cognitively assessed in the NOR, EPM and FC tests. 48 hours following the final dose mice were perfused with ice-cold 1×PBS. The brain was removed and dissected into two hemispheres. One half was snap-frozen on dry ice and stored at −80° C. for biochemistry; the other half was post-fixed in 4% paraformaldehyde then sagittally sectioned on a vibratome into 30 μm sections and stored at 4° C. in storage buffer until histological analyses.

β-hex [2] = target: T1, β-hex (Mus musculus, UniProt P20060); assay: Proof-of-concept study: brain β-hex levels; type: in vivo, Dutch APP^E693Q transgenic mice; conditions: 3-month course, dose-dependent
T1 construct: from tissue; host or cells: brain of Dutch APP E693Q transgenic mice
T1 sequence (P20060 32-536): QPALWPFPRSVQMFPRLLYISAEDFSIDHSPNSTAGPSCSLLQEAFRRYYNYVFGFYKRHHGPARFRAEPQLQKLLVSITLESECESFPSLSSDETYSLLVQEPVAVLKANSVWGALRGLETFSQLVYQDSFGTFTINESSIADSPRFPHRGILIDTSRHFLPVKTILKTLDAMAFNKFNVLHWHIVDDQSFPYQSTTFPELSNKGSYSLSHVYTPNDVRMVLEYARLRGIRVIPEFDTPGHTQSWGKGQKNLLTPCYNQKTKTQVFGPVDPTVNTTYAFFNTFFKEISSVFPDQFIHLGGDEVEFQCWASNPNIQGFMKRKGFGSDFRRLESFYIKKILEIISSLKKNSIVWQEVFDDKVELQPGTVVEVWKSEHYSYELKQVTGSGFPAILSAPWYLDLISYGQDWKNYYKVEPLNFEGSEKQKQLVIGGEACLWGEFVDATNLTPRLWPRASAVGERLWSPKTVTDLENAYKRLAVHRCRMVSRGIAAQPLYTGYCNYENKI
Procedure: as §1

O-GlcNAcase = target: T2, O-GlcNAcase (Homo sapiens, UniProt O60502); assay: Cellular O-GlcNAcase activity (protein O-GlcNAc Western blot) in fibroblasts and SH-SY5Y cells; type: cell-based; conditions: concentrations up to 100 μM
T2 construct: host or cells: wild-type fibroblasts AG07059 and SH-SY5Y cells
T2 sequence (O60502 1-916): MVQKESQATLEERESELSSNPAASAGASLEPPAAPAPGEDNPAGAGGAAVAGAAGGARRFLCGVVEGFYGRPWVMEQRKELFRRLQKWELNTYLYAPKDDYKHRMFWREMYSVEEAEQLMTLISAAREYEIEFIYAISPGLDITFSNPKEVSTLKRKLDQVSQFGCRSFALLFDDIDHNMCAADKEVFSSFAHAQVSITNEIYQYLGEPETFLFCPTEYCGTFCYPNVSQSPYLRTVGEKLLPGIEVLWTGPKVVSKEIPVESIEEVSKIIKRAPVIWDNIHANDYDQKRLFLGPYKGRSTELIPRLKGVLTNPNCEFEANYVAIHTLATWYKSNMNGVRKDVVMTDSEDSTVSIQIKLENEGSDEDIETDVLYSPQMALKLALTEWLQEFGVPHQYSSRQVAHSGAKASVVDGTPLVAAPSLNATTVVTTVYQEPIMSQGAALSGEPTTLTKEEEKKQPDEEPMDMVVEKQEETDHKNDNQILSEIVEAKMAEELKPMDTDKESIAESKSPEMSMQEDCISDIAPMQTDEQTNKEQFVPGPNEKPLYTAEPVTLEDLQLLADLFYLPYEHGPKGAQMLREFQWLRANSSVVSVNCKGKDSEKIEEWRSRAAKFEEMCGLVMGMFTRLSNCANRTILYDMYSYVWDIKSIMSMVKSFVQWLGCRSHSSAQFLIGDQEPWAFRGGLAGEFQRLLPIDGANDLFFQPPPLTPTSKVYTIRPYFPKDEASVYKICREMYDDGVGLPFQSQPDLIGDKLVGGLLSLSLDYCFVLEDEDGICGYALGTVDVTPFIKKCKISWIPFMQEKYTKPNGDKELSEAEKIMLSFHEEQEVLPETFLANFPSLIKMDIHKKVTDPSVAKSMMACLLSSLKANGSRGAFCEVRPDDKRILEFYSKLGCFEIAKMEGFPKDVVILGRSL
Procedure: Effect of AdDNJ on cellular O-GlcNAcase activity was tested in both wild-type fibroblast (AG07059, Coriell) and SH-SY5Y cells. Fibroblasts were incubated with or without 10 μM AdDNJ or Thiamet G in complete media for 24 h at 37° C. in a humidified 8% CO2 incubator. For SH-SY5Y cells, multiple concentrations (0 μM to 100 μM) of AdDNJ and Thiamet G were used. Cell pellets were lysed in RIPA buffer and total protein-associated O-GlcNAc level was measured using Western blot. Briefly, 40 μg total protein was separated, transferred to PVDF and probed with an anti O-GlcNAc antibody (18B10.C7, Pierce). Chemiluminescence was imaged using an Alpha Innotech FluoroChem Q imager and quantified by densitometry using AlphaView SA software (Alpha Innotech). The blots were stripped and re-probed with an anti-calnexin antibody (ab22595, Abcam). For O-GlcNAc quantification, whole lane O-GlcNAc densitometry was background subtracted and normalized to the calnexin load control band.

SH-SY5Y cells = assay: Cell viability, tetrazolium-formazan conversion; type: cell-based, human; conditions: concentrations as high as 1 mM, up to 120 hours
Procedure: (§2) Viability of human fibroblast (CRL2076) and human neuroblastoma (SH-SY5Y) cells was tested after prolonged exposure to varying concentrations of AdDNJ. In a 96-well plate, fibroblasts were incubated in complete media containing increasing concentrations of AdDNJ up to 1 mM for either 72 or 120 hours at 37° C. in a humidified 8% CO2 incubator. Living cells were quantified using a tetrazoliuim-formazan conversion method according to the manufacturer's instructions (Promega Non-Radioactive 96-well Titer assay, TB112). SH-SY5Y cells were tested in the same manner as fibroblasts but plated in collagen-coated plates (Nunc #152036). After 24 hour, 48 hour and 120 hour exposure to AdDNJ, living SH-SY5Y cells were quantified as described above. All dosing concentrations were done in triplicate.

human skin fibroblasts = assay: Cell viability, tetrazolium-formazan conversion; type: cell-based; conditions: concentrations as high as 1 mM, up to 120 hours
Procedure: as §2

β-hex [3] = assay: beta-hexosaminidase enhancement assay in fibroblasts; type: cell-based; conditions: healthy human skin fibroblasts, 5 days, 95, 390 or 780 nM, dose-dependent
Source text: Enzymatic activity measurements were done in duplicate.

## CC(=O)NC1CNC(CO)[C@@H](O)C1O (stereo partly shown) [AdDNJ, 2-acetamido-1,2-dideoxynojirimycin]
β-hex [1]; 3-100 mg/kg oral 5 days/week, at the highest dose
  increase in total brain β-hex: up to 3 fold
β-hex [1]; dose-dependent
  brain β-hex A&S level: increased
β-hex [2]
  brain β-hex B level: increased
O-GlcNAcase
  inhibition of O-GlcNAcase: did not inhibit
SH-SY5Y cells
  effect on cell viability: little or no effect on cell viability
Human skin fibroblasts
  effect on cell viability: little or no effect on cell viability
β-hex [3]
  increase in β-hex levels: up to 3 fold
